Source: ChEMBL document CHEMBL4265943, “Design and synthesis of potent dual inhibitors of JAK2 and HDAC based on fusing the pharmacophores of XL019 and vorinostat” (Eur J Med Chem, 2018)

What was measured:
[1] = biological target: Tyrosine-protein kinase JAK2 (Homo sapiens, UniProt O60674); test: Inhibition of human JAK2 using poly(Glu:Tyr)(4:1) as substrate preincubated for 20 mins followed by [gamma33P]ATP addition measured after 120 mins by ion exchange filter paper method
[2] = biological target: T1, Tyrosine-protein kinase JAK3 (Homo sapiens, UniProt P52333); test: Inhibition of human JAK3 using poly(Glu:Tyr)(4:1) as substrate preincubated for 20 mins followed by [gamma33P]ATP addition measured after 120 mins by ion exchange filter paper method
T1 sequence (P52333 whole entry): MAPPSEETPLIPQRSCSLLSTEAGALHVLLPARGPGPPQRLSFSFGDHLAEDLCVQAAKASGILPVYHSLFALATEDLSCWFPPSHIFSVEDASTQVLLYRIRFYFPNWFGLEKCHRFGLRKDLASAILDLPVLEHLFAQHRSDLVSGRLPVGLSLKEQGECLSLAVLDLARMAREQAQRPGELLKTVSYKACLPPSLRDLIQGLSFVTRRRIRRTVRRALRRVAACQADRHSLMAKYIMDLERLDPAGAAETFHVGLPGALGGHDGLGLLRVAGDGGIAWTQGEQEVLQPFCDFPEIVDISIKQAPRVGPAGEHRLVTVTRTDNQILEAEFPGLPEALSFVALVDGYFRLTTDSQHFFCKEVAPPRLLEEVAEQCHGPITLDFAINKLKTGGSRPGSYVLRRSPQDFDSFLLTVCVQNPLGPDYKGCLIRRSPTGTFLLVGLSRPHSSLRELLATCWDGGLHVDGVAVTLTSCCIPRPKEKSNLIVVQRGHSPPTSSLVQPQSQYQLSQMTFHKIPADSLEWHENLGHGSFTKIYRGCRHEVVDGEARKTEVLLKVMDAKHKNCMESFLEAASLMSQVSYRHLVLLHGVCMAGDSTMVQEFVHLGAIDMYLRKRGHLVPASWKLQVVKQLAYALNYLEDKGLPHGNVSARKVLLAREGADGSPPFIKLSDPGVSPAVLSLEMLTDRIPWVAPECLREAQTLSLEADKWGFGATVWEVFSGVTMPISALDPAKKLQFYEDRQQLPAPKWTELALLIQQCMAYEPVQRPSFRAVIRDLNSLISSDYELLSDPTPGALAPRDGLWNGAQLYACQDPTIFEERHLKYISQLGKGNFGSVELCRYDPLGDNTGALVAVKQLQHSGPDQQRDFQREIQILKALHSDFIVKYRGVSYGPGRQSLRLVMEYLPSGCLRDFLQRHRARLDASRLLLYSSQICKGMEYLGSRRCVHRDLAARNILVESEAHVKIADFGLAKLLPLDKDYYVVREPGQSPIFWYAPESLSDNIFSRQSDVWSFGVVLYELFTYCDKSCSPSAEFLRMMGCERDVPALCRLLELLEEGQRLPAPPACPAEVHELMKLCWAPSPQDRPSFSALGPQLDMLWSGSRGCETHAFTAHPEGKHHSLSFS

Homo sapiens = species: Homo sapiens; test: Selectivity ratio of IC50 for human TYK2 to IC50 for human JAK2
HCT-116 [3] = test: Antiproliferative activity against human HCT116 cells after 72 hrs by MTT assay; assay type: functional, cell-based; conditions: HCT-116, 72 h
MDA-MB-231 [4] = test: Antiproliferative activity against human MDA-MB-231 cells after 72 hrs by MTT assay; assay type: functional, cell-based; conditions: MDA-MB-231, 72 h
MCF7 [5] = test: Antiproliferative activity against human MCF7 cells after 72 hrs by MTT assay; assay type: functional, cell-based; conditions: MCF7, 72 h
PC-3 [6] = test: Antiproliferative activity against human PC3 cells after 72 hrs by MTT assay; assay type: functional, cell-based; conditions: PC-3, 72 h
[7] = Antiproliferative activity against human AC10 cells after 72 hrs by MTT assay; assay type: cell-based
[8] = Antiproliferative activity against mouse TAMH cells after 72 hrs by MTT assay; assay type: cell-based
[9] = Selectivity index, ratio of CC50 for human AC10 cells to IC50 for human MDA-MB-231 cells; assay type: toxicity; conditions: AC10 cells (CC50) and MDA-MB-231 cells (IC50)
[10] = Selectivity index, ratio of CC50 for mouse TAMH cells to IC50 for human MCF7 cells; assay type: toxicity; conditions: TAMH cells (CC50) and MCF7 cells (IC50)
PC-3 [11] = test: Induction of apoptosis in human PC3 cells assessed as live cells at 0.71 uM after 72 hrs by Annexin V-FITC/propidium iodide staining based flow cytometry (reference value: 96.36%); assay type: functional
PC-3 [12] = test: Induction of apoptosis in human PC3 cells assessed as late apoptotic cells at 0.71 uM after 72 hrs by Annexin V-FITC/propidium iodide staining based flow cytometry (reference value: 1.01%); assay type: functional
PC-3 [13] = test: Induction of apoptosis in human PC3 cells assessed as necrotic cells at 0.71 uM after 72 hrs by Annexin V-FITC/propidium iodide staining based flow cytometry (reference value: 0.66%); assay type: functional
HCT-116 [14] = test: Induction of apoptosis in human HCT116 cells assessed as live cells at 1.14 uM after 72 hrs by Annexin V-FITC/propidium iodide staining based flow cytometry (reference value: 95.7%); assay type: functional
MCF7 [15] = test: Induction of apoptosis in human MCF7 cells assessed as early apoptotic cells at 0.86 uM after 72 hrs by Annexin V-FITC/propidium iodide staining based flow cytometry (reference value: 1.19%); assay type: functional
MDA-MB-231 [16] = test: Induction of apoptosis in human MDA-MB-231 cells assessed as early apoptotic cells at 0.9 uM after 72 hrs by Annexin V-FITC/propidium iodide staining based flow cytometry (reference value: 1.45%); assay type: functional
MDA-MB-231 [17] = test: Induction of apoptosis in human MDA-MB-231 cells assessed as late apoptotic cells at 0.9 uM after 72 hrs by Annexin V-FITC/propidium iodide staining based flow cytometry (reference value: 2.12%); assay type: functional

Sequence of Tyrosine-protein kinase JAK2 (O60674 whole entry): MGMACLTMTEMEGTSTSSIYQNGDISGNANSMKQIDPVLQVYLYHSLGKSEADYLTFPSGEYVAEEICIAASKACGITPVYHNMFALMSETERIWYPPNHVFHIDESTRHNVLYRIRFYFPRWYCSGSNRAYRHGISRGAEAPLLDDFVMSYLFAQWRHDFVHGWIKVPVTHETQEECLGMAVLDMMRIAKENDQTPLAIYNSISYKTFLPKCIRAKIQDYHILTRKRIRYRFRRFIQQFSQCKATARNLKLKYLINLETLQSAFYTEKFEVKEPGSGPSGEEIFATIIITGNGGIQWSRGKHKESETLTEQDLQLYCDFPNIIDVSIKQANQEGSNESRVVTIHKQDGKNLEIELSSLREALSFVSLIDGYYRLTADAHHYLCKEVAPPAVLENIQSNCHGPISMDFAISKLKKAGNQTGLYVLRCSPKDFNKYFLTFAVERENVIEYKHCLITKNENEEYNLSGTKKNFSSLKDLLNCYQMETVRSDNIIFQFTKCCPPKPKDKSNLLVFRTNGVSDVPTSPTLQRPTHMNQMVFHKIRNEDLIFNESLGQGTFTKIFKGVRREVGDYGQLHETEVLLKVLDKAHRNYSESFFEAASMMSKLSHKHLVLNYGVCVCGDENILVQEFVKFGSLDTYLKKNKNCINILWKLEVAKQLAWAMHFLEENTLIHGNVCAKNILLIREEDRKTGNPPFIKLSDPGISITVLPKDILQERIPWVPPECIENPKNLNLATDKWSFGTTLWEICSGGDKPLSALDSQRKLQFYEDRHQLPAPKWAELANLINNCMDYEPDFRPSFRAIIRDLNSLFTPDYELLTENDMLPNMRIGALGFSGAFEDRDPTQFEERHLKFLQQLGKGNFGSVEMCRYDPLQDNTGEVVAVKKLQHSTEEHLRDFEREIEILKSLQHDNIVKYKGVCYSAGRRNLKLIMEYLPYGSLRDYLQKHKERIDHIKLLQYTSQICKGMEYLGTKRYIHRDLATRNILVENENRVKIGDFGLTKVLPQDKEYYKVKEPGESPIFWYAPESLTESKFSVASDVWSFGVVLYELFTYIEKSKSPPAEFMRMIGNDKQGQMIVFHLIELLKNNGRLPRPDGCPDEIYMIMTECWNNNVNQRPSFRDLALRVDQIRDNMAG

IC50 [1]: 3.1 nM
IC50 [2]: 80.1 nM
Ratio IC50 (Homo sapiens): 25.6
IC50 (HCT-116 [3]): 1050 nM
IC50 (MDA-MB-231 [4]): 990 nM
IC50 (MCF7 [5]): 700 nM
IC50 (PC-3 [6]): 640 nM
SMILES: O=C(CCCCCCC(=O)Nc1ccc(-c2ccnc(Nc3ccc(N4CCOCC4)cc3)n2)cc1)NO
CC50 at 72 h [7]: 3980 nM
CC50 at 72 h [8]: 6390 nM
selectivity ratio [9]: 4.02
selectivity ratio [10]: 9.13
Activity (PC-3 [11]): 39.88%
Activity (PC-3 [12]): 13.06%
Activity (PC-3 [13]): 1.37%
Activity (HCT-116 [14]): 52.4%
Activity (MCF7 [15]): 29.26%
Activity (MDA-MB-231 [16]): 43.86%
Activity (MDA-MB-231 [17]): 39.98%
